Data on 10 compounds can be found in PubChem BioAssay (NCI).

Holding throughout (assay): growth of human tumour cells (NCI), 48 h
The subject of assay [1] is SK-MEL-5 melanoma.
Assay [2] has as its system BT-549 breast.
The subject of assay [3] is NCI-H522 lung.
Assay [4] has as its system HS 578T breast.
In assay [5] the test system is EKVX NSCLC.
The subject of assay [6] is MALME-3M melanoma.
Assay [7] has as its system SK-MEL-28 melanoma.
Assay [8] has as its system ACHN renal.

Each structure is given as a SMILES string. “And” between values parts separate entries of the source, which are not always exact repeats. Equal entries are not always repeated.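 Briefly, cells in 96-well plates were exposed to five compound concentrations for 48 h, and endpoints were estimated by linear interpolation. GI50 marks 50% less growth. At the TGI there is no net growth.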 A value given as a limit tells only on which side of the number the result lay.

As for `O=C1/C(=C/c2ccc(Cl)cc2)CNC/C1=C\c1ccc(Cl)cc1`, the TGI was 22.1 µM and 11.3 µM in assay [1]; 8.41 µM in assay [2]; 4.4 µM and 4.75 µM in assay [3]; more than 41.7 µM in assay [4]; 21.2 µM and 6.75 µM in assay [5]; 20.5 µM and 16.8 µM in assay [6]. The TGI is 3.74 µM and 2.96 µM in assay [7]; 4.17 µM and 7.08 µM in assay [8]. In addition, the GI50 is 5.74 µM and 2.29 µM in assay [5]; 1.3 µM in assay [7].
As to `COC(=O)c1cc2c3ccccc3n3c2c(n1)-c1[nH]c2ccccc2c(=O)c1C3`, the GI50 in assay [1] is more than 100 µM; in assay [2], 22.6 µM; in assay [3], 66.3 µM; in assay [4], 15.4 µM; in assay [5] it was 79 µM; in assay [6] it was more than 100 µM. In addition, the GI50 is more than 100 µM in assay [7] and 33.6 µM in assay [8]. Further, the TGI in assay [1] is more than 100 µM; in assay [2] it was 63.2 µM; in assay [3], more than 100 µM; in assay [4] it was more than 100 µM; in assay [5] it was more than 100 µM; in assay [6], more than 100 µM. Besides, the TGI in assay [7] and in assay [8] was more than 100 µM throughout.
On to `Cc1cc2c(-c3nc4ccccn4c3N)c(O)c(O)cc2c(O)c1-c1c(C)cc2c(-c3nc4ccccn4c3N)c(O)c(O)cc2c1O`, for which the GI50 in assay [1] was 0.554 µM; in assay [2], 0.145 µM; in assay [3], 0.625 µM; in assay [4] it was 0.797 µM; in assay [5], 0.965 µM; in assay [6] it was 0.81 µM. Further, the GI50 in assay [7] was 1.16 µM; in assay [8], 1.63 µM. Moreover, the TGI is 1.66 µM in assay [1]; more than 25 µM in assay [2]; 4.88 µM in assay [3]; more than 25 µM in assay [4]; more than 25 µM in assay [5]; more than 25 µM in assay [6]. Moreover, the TGI in assay [7] and in assay [8] was more than 25 µM each time.
Regarding `O=[N+]([O-])c1cc([N+](=O)[O-])c(Nn2c3ccccc3c3ccccc32)c([N+](=O)[O-])c1`, the GI50 in assay [1] was 0.216 µM; in assay [2], 0.278 µM; in assay [3], 0.253 µM; in assay [4] it was 0.366 µM; in assay [5] it was 0.328 µM; in assay [6], 0.236 µM. Moreover, in assay [7], the GI50 was 0.483 µM. Further, the TGI in assay [1] was 4.53 µM and 0.506 µM; in assay [2], 7.32 µM and 1.23 µM; in assay [3], 1.88 µM and 0.838 µM; in assay [5], 7.64 µM; in assay [6] it was 4.88 µM and 0.733 µM; in assay [7], 51.2 µM and 14.9 µM. The compound also displayed a TGI in assay [8] of 8.49 µM.
For the compound `CCOc1ccn(-c2ccc(F)cc2)c(=O)c1C(=O)Nc1ccc(Oc2ccnc(N)c2Cl)c(F)c1`, the GI50 in assay [1] is 9.99 µM; in assay [2], 13.8 µM; in assay [3], 12.3 µM; in assay [4] it was 3.7 µM; in assay [5], 31.3 µM; in assay [6] it was 7.72 µM. Besides, the results for the GI50 in assay [7] and in assay [8] were 6.7 µM and 9.22 µM, respectively. Moreover, the TGI in assay [1] is 25.5 µM; in assay [2] it was 59.2 µM; in assay [3] it was 69.5 µM; in assay [4], 30.6 µM; in assay [5], more than 100 µM; in assay [6], 46.4 µM. Besides, the TGI in assay [7] is 59.1 µM; in assay [8], more than 89.1 µM.
For the compound `CCOP(=O)(OCC)C(C(=O)OC)C(=O)C(=O)Nc1cccc(O)c1` (stereo not given), the TGI in assay [1], in assay [2], in assay [3], in assay [4], in assay [5] and in assay [6] was more than 100 µM in each case. For the same compound, the TGI in assay [7] and in assay [8] was more than 100 µM in each case.
Consider `O=C(O)C1[O][Sb][O]C(C(=O)O)C1O` (stereo not given), for which the GI50 in assay [1], in assay [2], in assay [3], in assay [4], in assay [5] and in assay [6] was more than 100 µM in each case. The GI50 in assay [7] and in assay [8] was more than 100 µM throughout. For the same compound, the TGI in assay [1], in assay [2], in assay [3], in assay [4], in assay [5] and in assay [6] was more than 100 µM throughout. The TGI in assay [7] and in assay [8] was more than 100 µM in each case.
Take `CC(=O)[C@H]1CCC/C=C/[C@@H]2C[C@H](O)C[C@H]2[C@H](O)/C=C/C(=O)O1`: the GI50 in assay [1] is 0.163 µM; in assay [2] it was 0.657 µM; in assay [3] it was 0.805 µM; in assay [4], 2.44 µM; in assay [5], 0.932 µM; in assay [6], 0.27 µM. Besides, the GI50 in assay [7] is 0.261 µM; in assay [8], 0.674 µM. The TGI in assay [1] is 0.318 µM; in assay [2], more than 100 µM; in assay [3], 2.74 µM; in assay [4], more than 100 µM; in assay [5], more than 100 µM; in assay [6], 3.4 µM. The TGI in assay [7] was 0.923 µM; in assay [8] it was more than 26.4 µM.
Take `CCCCCC/C=C\CCCCCCCCCC1=C(CN2CCN(C)CC2)C(=O)C=C(OC)C1=O`: the TGI in assay [1] came out at 19.3 µM; in assay [2] it was 15.5 µM; in assay [3] it was 3.01 µM; in assay [4] it was 24.5 µM; in assay [5], 27.9 µM; in assay [6], 9.55 µM. For the same compound, the TGI in assay [7] came out at 28.2 µM; in assay [8], 13 µM.
For the compound `C=CCC(N[C@H](CO)c1ccccc1)c1cn(Cc2ccccc2Cl)c(=O)n(Cc2ccccc2Cl)c1=O` (stereo not given in full), the GI50 was 14.6 µM in assay [1]; 14.3 µM in assay [3]; 26 µM in assay [4]; 16.1 µM in assay [5]; 34.5 µM in assay [6]; 19.7 µM in assay [7]. Also, in assay [8], the GI50 was 4.78 µM. Also, the TGI in assay [1] is 30.1 µM; in assay [2], 7.01 µM; in assay [3], 89.9 µM; in assay [4] it was more than 100 µM; in assay [5], 96.4 µM; in assay [6], 81 µM. The figures for the TGI in assay [7] and in assay [8] were 39.5 µM and 39 µM, respectively.
